Source: patent US20240059689A1, “PURINE DERIVATIVES AS ANTICANCER AGENTS” (Tango Therapeutics, Inc., priority 2021, published 2024)

How the values were obtained:
USP1-UAF1 = USP1-UAF1 (Homo sapiens, UniProt O94782); assay: Ubiquitin Rhodamine assay of USP1-UAF1 activity; assay type: biochemical
Procedure: Certain compounds of the disclosure were assessed for USP1-UAF1 activity in a Ubiquitin Rhodamine assay as described in Biology Example 1.

MDA-MB-436 = assay: Viability assay, BRCA1 mutant cell line MDA-MB-436; assay type: cell-based; conditions: Homo sapiens, MDA-MB-436, viability, BRCA1 mutant MDA-MB-436; read-out: MDA-MB-436 rel IC50
Source text: (§1) Table 1 also indicates IC50 values in a viability assay for a non-isogenic pair of BRCA1 mutant (column 5-MDA-MB-436) and BRCA1 WT (column 6—HCC1954) cell lines. These values indicate the effect of treatment with compound on cell survival.

HCC1954 = assay: Viability assay, BRCA1 WT cell line HCC1954; assay type: cell-based; conditions: Homo sapiens, HCC1954, viability, read-out: HCC1954 rel IC50
Source text: as §1

monoubiquitinated PCNA = assay: AlphaLISA assay measuring monoubiquitinated PCNA in MDA-MB-436; assay type: cell-based; conditions: Homo sapiens, MDA-MB-436, monoubiquitinated PCNA, read-out: Alpha Lisa IC50
Source text: Table 1 also indicates IC50 values for exemplary compounds in an AlphaLISA assay measuring monoubiquitinated PCNA in a BRCA1 mutant cell line (MDA-MB-436; column 7).

Sequence of USP1-UAF1 (O94782 whole entry): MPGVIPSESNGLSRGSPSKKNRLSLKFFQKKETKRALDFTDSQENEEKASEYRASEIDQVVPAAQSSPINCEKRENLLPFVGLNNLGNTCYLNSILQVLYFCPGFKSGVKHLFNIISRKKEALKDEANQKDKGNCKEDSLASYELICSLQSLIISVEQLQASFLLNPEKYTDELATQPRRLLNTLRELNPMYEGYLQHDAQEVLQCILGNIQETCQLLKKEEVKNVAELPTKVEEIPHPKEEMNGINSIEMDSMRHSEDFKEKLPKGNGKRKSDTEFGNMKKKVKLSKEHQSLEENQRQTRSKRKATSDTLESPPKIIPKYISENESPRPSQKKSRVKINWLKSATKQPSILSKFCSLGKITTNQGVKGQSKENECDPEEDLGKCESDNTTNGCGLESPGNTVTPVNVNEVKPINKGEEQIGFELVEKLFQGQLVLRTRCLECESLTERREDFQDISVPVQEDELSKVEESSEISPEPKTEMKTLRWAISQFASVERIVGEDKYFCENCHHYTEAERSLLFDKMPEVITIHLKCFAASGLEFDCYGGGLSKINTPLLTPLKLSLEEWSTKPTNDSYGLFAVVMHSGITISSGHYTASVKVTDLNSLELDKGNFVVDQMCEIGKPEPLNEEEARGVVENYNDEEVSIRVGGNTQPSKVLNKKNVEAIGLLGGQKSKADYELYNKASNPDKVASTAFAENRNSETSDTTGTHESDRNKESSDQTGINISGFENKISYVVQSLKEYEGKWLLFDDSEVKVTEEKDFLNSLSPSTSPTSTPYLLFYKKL
Sequence of USP1-UAF1 (Q8TAF3 whole entry partner): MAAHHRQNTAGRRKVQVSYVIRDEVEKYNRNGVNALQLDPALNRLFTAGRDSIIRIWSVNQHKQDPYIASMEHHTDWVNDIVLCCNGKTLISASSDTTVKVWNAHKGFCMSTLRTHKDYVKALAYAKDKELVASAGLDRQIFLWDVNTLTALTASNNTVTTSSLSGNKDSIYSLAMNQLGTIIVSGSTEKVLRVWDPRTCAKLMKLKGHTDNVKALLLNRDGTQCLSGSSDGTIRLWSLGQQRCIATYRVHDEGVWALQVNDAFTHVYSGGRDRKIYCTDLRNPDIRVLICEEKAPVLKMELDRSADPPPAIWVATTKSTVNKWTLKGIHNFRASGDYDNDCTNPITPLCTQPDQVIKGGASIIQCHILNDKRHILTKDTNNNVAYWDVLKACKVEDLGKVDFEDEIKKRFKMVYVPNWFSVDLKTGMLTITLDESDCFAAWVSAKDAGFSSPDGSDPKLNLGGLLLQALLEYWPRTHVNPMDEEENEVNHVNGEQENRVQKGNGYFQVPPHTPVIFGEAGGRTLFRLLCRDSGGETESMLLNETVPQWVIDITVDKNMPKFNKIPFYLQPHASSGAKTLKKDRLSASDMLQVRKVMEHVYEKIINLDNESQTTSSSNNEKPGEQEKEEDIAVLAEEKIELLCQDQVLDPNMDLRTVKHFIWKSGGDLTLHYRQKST

| SMILES | IC50 (USP1-UAF1) [nM] | IC50 (MDA-MB-436) [nM] | IC50 (HCC1954) [nM] | IC50 (monoubiquitinated PCNA) [nM] |
| --- | --- | --- | --- | --- |
| COc1ncnc(C2CC2)c1-c1ncc2c(n1)n([C@@H](C)c1ccc(-c3nc(C(F)(F)F)cn3C)cc1)c(=N)n2C [Example T-142, 2-(4-cyclopropyl-6-methoxy-pyrimidin-5-yl)-7-methyl-9-[(1S)-1-[4-[1-methyl-4-(trifluoromethyl)imidazol-2-yl]phenyl]ethyl]purin-8-imine] | 100 to 10000 | 100 to 250 | ≥ 10000 | 100 to 250 |
| COc1ncnc(C2CC2)c1-c1ncc2c(n1)n([C@H](C)c1ccc(-c3nc(C(F)(F)F)cn3C)cc1)c(=N)n2CC(F)(F)F [Example T-143, (R)-2-(4-cyclopropyl-6-methoxypyrimidin-5-yl)-9-(1-(4-(1-methyl-4-(trifluoromethyl)-1H-imidazol-2-yl)phenyl)ethyl)-7-(2,2,2-trifluoroethyl)-7,9-dihydro-8H-purin-8-imine] | 30 to 100 | < 100 | ≥ 10000 | < 100 |
| COc1ncnc(C(F)(F)F)c1-c1ncc2c(n1)n(Cc1ccc(-c3nc(C(F)(F)F)cn3C)cc1)c(=N)n2CC(F)(F)F [Example T-144, 2-[4-methoxy-6-(trifluoromethyl)pyrimidin-5-yl]-9-[[4-[1-methyl-4-(trifluoromethyl)imidazol-2-yl]phenyl]methyl]-7-(2,2,2-trifluoroethyl)purin-8-imine] | 30 to 100 | 100 to 250 | ≥ 10000 | 100 to 250 |
| COc1ncnc(C(F)(F)F)c1-c1ncc2c(n1)n(Cc1ccc(-n3nc(C(F)(F)F)cc3OC)cc1)c(=N)n2CC(F)(F)F [Example T-145, 9-[[4-[5-methoxy-3-(trifluoromethyl)pyrazol-1-yl]phenyl]methyl]-2-[4-methoxy-6-(trifluoromethyl)pyrimidin-5-yl]-7-(2,2,2-trifluoroethyl)purin-8-imine] | 30 to 100 | 100 to 250 | 250 to 10000 | < 100 |
| COc1nc(C)nc(C2CC2)c1-c1ncc2c(n1)n(Cc1ccc(-c3nc(C(F)(F)F)cn3C)cc1)c(=N)n2C [Example T-146, 2-(4-cyclopropyl-6-methoxy-2-methyl-pyrimidin-5-yl)-7-methyl-9-[[4-[1-methyl-4-(trifluoromethyl)imidazol-2-yl]phenyl]methyl]purin-8-imine] | 30 to 100 | < 100 | ≥ 10000 | < 100 |
| Cn1cc(C(F)(F)F)nc1-c1ccc(Cn2c(=N)n(CC(F)(F)F)c3cnc(-c4c(OCF)ncnc4C4CC4)nc32)cc1 [Example T-147, 2-[4-cyclopropyl-6-(fluoromethoxy)pyrimidin-5-yl]-9-[[4-[1-methyl-4-(trifluoromethyl)imidazol-2-yl]phenyl]methyl]-7-(2,2,2-trifluoroethyl)purin-8-imine] | 30 to 100 | 100 to 250 | ≥ 10000 | < 100 |
